Experimental data as given in patent US8541200B2, “Cleavage of fusion proteins using Granzyme B protease” (Hoffmann-La Roche Inc., priority 2003, dated 2013).
“And” between values parts separate entries of the source, which are not always exact repeats. Equal entries are not always repeated.

Experiments:
Format in all cases: biochemical
[1] = Specificity on chromogenic substrates; settings: 400 μM substrate, 1 μg protease, 100 mM HEPES pH 7.75; normalized to Ac-IEPD-pNA = 100%
Method: The activity assay was carried out in 500 μl 100 mM HEPES pH 7.75 with a substrate concentration of 400 μM and 1 μg protease added for each measurement. All measurements were done at 23° C. and in triplicate, and the activities obtained were normalized by setting the activity measured on Ac-IEPD-pNA to 100%.
The specificity of both the GrB-H6 and the GrB-H6 C228F protease was examined using the chromogenic substrates Ac-LEED-pNA, Ac-VEID-pNA, Ac-YVAD-pNA, and Ac-DEVD-pNA, in addition to the Ac-IEPD-pNA substrate applied in Example 4. The activity assay was again carried out in 500 μl 100 mM HEPES pH 7.75 with a substrate concentration of 400 μM. For each measurement 1 μg of protease was added to the assay cuvette. All measurements were done in triplicate, and the activities obtained were normalized by setting the activity measured on Ac-IEPD-pNA to 100%.

[2] = Colorimetric Granzyme B activity assay with Ac-IEPD-pNA (absorbance at 405 nm)
Method: GrB-H6 activity was measured using the following mix: 500 μl buffer, 2 μl 100 mM Ac-IEPD-pNA, and 5 μl GrB-H6.
Recombinant self-activating human Granzyme B derivatives IEPD-GrB-H6 and IEAD-GrB-H6 were produced as described in Example 2 by using the expression vectors pT7-IEPD-GrB-H6 and pT7-IEAD-GrB-H6 described in Example 1. The IEAD-GrB-H6 and IEPD-GrB-H6 proteins were eluted from the SP Sepharose columns and stored at 4° C. for 2 days before the activity of the respective top fractions were determined by using a colorimetric assay. For this purpose the following was mixed: 500 μl buffer (100 mM HEPES pH 7.5), 2 μl 100 mM Ac-IEPD-pNA, and 5 μl protein solution. The change in absorption was then determined at 405 nm during 3 min. The activity was further determined after additional incubation for 1 and 2 days at 4° C.
The activity of the activated and purified GrB-H6 was measured in different buffers using the Ac-IEPD-pNA substrate: 500 μl buffer, 2 μl 100 mM Ac-IEPD-pNA, and 5 μl GrB-H6. The ΔOD405/min was calculated from the first 0.75 min unless otherwise noted.

[3] = Steady state kinetic parameters KM and kcat, Lineweaver-Burk plot; settings: 100 mM HEPES pH 7.75; 20 nM protease
Method: To estimate the steady state kinetic parameters KM and kcat, the same colorimetric assay as described above was used with a total volume of 500 μl in the assay cuvette. The assay buffer was 100 mM HEPES pH 7.75, and both GrB-H6 and GrB-H6 C228F were used in a concentration of 20 nM in each measurement. To construct a Lineweaver-Burk plot the following substrate concentrations were used: 5, 40, 150, 300, and 600 μM.

GrB-H6: activated human Granzyme B with C-terminal hexa-His tag, from cleavage/activation of pro-IEGR-GrB-H6 by FXa
specificity on chromogenic substrates [1]: at least as specific as the GrB-H6 C228F protease | Activity (ΔOD405/min) ([2]; 50 mM NaCl, 25 mM Tris-HCl pH 7.4, 0.5 μg GrB-H6): 0.1948 ΔOD405/min | Activity (ΔOD405/min) ([2]; 100 mM HEPES pH 7.2, 0.5 μg GrB-H6): 0.1970 ΔOD405/min | Activity (ΔOD405/min) ([2]; 100 mM HEPES pH 7.4 + 50 mM KCl, 0.5 μg GrB-H6): 0.2167 ΔOD405/min | Activity (ΔOD405/min) ([2]; 100 mM HEPES pH 7.4 + 50 mM NaCl, 0.5 μg GrB-H6): 0.1993 ΔOD405/min and 0.1938 ΔOD405/min | Activity (ΔOD405/min) ([2]; 100 mM HEPES pH 7.4, 0.5 μg GrB-H6): 0.2273 ΔOD405/min and 0.2328 ΔOD405/min | Activity (ΔOD405/min) ([2]; 100 mM HEPES pH 7.5 + 5 mM Ca^2+, 0.5 μg GrB-H6): 0.2425 ΔOD405/min | Activity (ΔOD405/min) ([2]; 100 mM HEPES pH 7.5, 0.5 μg GrB-H6): 0.2350 ΔOD405/min | Activity (ΔOD405/min) ([2]; 100 mM KCl, 50 mM Tris-HCl pH 7.4, 0.5 μg GrB-H6): 0.1662 ΔOD405/min | Activity (ΔOD405/min) ([2]; 100 mM NaCl, 50 mM Tris-HCl pH 7.4, 0.5 μg GrB-H6): 0.1682 ΔOD405/min | GrB activity, before FXa removal ([2]; 100 mM NaCl, 50 mM Tris-HCl pH 8.0): 0.1401 ΔOD405/min | GrB activity, after FXa removal ([2]; 100 mM NaCl, 50 mM Tris-HCl pH 8.0, top fraction of SP Sepharose eluate): 0.2213 ΔOD405/min | Activity (ΔOD405/min) ([2]; TN pH 7.0, 1 μg GrB-H6): 0.2794 ΔOD405/min | Activity (ΔOD405/min) ([2]; TN pH 7.4 + 5 mM Ca^2+, 0.5 μg GrB-H6): 0.1401 ΔOD405/min | Activity (ΔOD405/min) ([2]; TN pH 7.4 + 5 mM Mg^2+, 0.5 μg GrB-H6): 0.1491 ΔOD405/min | Activity (ΔOD405/min) ([2]; TN pH 7.4 + 0.1% TWEEN20, 0.2 μg GrB-H6, (3 min)): 0.0303 (3 min) ΔOD405/min | Activity (ΔOD405/min) ([2]; TN pH 7.4 + 0.1% TWEEN20, 0.5 μg GrB-H6): 0.0887 ΔOD405/min | Activity (ΔOD405/min) ([2]; TN pH 7.4, 0.2 μg GrB-H6, (3 min)): 0.0245 (3 min) ΔOD405/min | Activity (ΔOD405/min) ([2]; TN pH 7.4, 0.5 μg GrB-H6): 0.0835 ΔOD405/min and 0.1082 ΔOD405/min | Activity (ΔOD405/min) ([2]; TN pH 7.4, 1 μg GrB-H6): 0.2624 ΔOD405/min and 0.2930 ΔOD405/min | Activity (ΔOD405/min) ([2]; TN pH 8.1, 1 μg GrB-H6, (1 min)): 0.2213 (1 min) ΔOD405/min | best buffer for activity of the buffers evaluated ([2]; buffers of Table 6): 100 mM HEPES pH 7.4-7.5 | Km [3]: 66.9 µM | kcat [3]: 5.03 s⁻¹
